This note sets out measurements from PMC2843552 (Cancer research, 2010).

The test system of one data set is JAK2. The data set can be described thus: HTScan JAK2 Kinase Assay. The format is biochemical, human. Particulars: 5 µM; over a DMSO control; P<0.05.
Data set [1] concerns P-STAT3 in MDA-MB-231 breast cancer cells. Nature of the data set: Western blot of P-STAT3. Particulars: 2.5 and 5 µM, 24 hours.
Data set [2] relates to P-STAT3 in PANC-1 pancreatic cancer cells. The data set can be described thus: Western blot of P-STAT3. Particulars: 2.5 and 5 µM, 24 hours.
Data set [3] deals with MDA-MB-231 cells. Nature of the data set: Soft agar colony formation assay. The note with it: MDA-MB-231, soft agar, two weeks.
The subject of data set [4] is MDA-MB-231 cells. Nature of the data set: Laminin-based cell invasion assay. The note with it: 1 µM, 24 hours.
The subject of the next data set is WI-38 lung cells. The data set can be described thus: Apoptosis in normal cells. The note with it: normal cell line.
A further data set concerns BdsMC bladder cells. Nature of the data set: Apoptosis in normal cells. The note with it: normal cell line.
The next data set concerns HMEC cells. The data set can be described thus: Western blot of cleaved caspase-3 in normal cells. The note with it: concentrations as high as 10 µM; normal breast cells. In general terms: In western blotting, separated proteins are transferred to a membrane and probed.
Another data set has as its system HPDE cells. The data set can be described thus: Western blot of cleaved caspase-3 in normal cells. Particulars: concentrations as high as 10 µM; normal pancreatic cells.
The test system of data set [5] is MDA-MB-231 breast cancer cell line. The data set can be described thus: Combinatorial effect with doxorubicin on cell viability. Particulars: 100–400 nM doxorubicin with 5000 nM compound; p < 0.05 over either agent alone.
In data set [6] the test system is STAT3 transcriptional activity in MDA-MB-231 cells. The data set can be described thus: STAT3-dependent transcriptional luciferase assay. The note with it: 24 hours of treatment.
Data set [7] concerns STAT3 DNA-binding activity in MDA-MB-231 cells. Nature of the data set: STAT3 DNA-binding activity in nuclear extracts. Particulars: 24 hours treatment.
Data set [8] relates to STAT3 DNA-binding activity in PANC-1 cells. Nature of the data set: STAT3 DNA-binding activity in nuclear extracts. Particulars: 24 hours treatment.
In data set [9] the test system is STAT1 DNA-binding activity in MDA-MB-231 cells. The data set can be described thus: STAT1 DNA-binding activity in nuclear extracts. The note with it: 24 hours treatment.

Regarding `COc1ccc(/C=C/C(=O)C(C)(C)C(=O)/C=C/c2ccc(OC)c(OC)c2)cc1OC` [FLLL31], the “reduction in JAK2 kinase activity” value with JAK2 was “approximately 60%”. For the same compound, the “levels of P-STAT3” value in data set [1] and in data set [2] was “effectively reduced” throughout. For the same compound, the “reduction of overall colony numbers over that of curcumin” value in the data set on MDA-MB-231 cells [3] is given as “approximately 40%”. Further, the invasive capacity entry with MDA-MB-231 cells [4] is “substantially reduced”. Besides, the apoptosis entry in the data set with WI-38 lung cells and with BdsMC bladder cells was “no evidence of apoptosis” in each case. Moreover, the caspase-3 cleavage result with HMEC cells and in the data set on HPDE cells was “unable to induce caspase-3 cleavage” in each case. In addition, the “combination effect with doxorubicin on cell viability” value in data set [5] is on record as “synergistic”. The luciferase activity entry in data set [6] is “reduced luciferase activity in a dose-dependent fashion”. The “STAT3 DNA-binding activity” value in data set [7] and in [8] was “dropped sharply” each time. Further, the “STAT1 DNA-binding activity” value in data set [9] is “slightly enhanced”.
For the compound `COc1cc(/C=C/C(=O)CC(=O)/C=C/c2ccc(O)c(OC)c2)ccc1O` [curcumin, reference compound], the invasive capacity result with MDA-MB-231 cells [4] is given as “comparatively minimal impact”.
